One experiment deals with AHCY enzyme (UniProt P23526). The experiment in a line: In vitro AHCY activity assay (ThioGlo1 fluorescence). The format is biochemical. The settings on record: recombinant expressed human or mouse AHCY enzyme; SAH substrate; ThioGlo1 readout. The protocol:
In vitro AHCY Activity Assay
The AHCY activity of the compounds of the invention can be measured by the following in vitro assay.
The AHCY enzyme assay is based on the principle of fluorescence emission following incubation of a reactive dye with the products of an AHCY catalyzed reaction. The reactive dye (Thioglo1) binds homocysteine through its thiol-containing moiety. The products of the AHCY catalyzed reaction, adenosine and homocysteine, are produced from the hydrolysis of SAH (s-adenosylhomocysteine) through AHCY's hydrolase activity.
The reaction is optimized in 96-, 384-, 1536- and 3456-assay plate formats with recombinant expressed human or mouse AHCY enzyme. When run under initial velocity conditions, the assay is suitable for IC50 and % inhibition calculations.
• 1) ThioGlo1 (catalog 595501, Calbiochem); 100 mM in DMSO • 2) SAH (catalog A-9384, Sigma); 4.69 mM with 0.06 N HCl • 3) Aristeromycin (catalog A-0928, Sigma); 100 mM in DMSO • 4) NAD (catalog 43410, Sigma); 14.5 mM in water • 5) EDTA in 500 mM pH 8 (catalog BP2482-100, Fisher) • 6) DTT stock 200 mM in water • 7) AHCY enzyme (diluted with 100 mM tris pH7.5) Dilutions immediately prior to use: • 1. SAH 750 μM (10×) (dilute with 100 mM Iris pH 7.5) • 2. Aristeromycin (10×) (dilute to 1 mM with 100 mM Tris pH7.5) • 3. ThioGlo1 (10×) (dilute to 100 μM in Tris pH7.5) • 4. […] Read plate (Ex 380 Em 510)

In experiment [1] the test system is AHCY in HEK293 and/or SH-SY5Y cells. Description: Cell-based assay of AHCY inhibition (secreted homocysteine). The settings on record: secreted homocysteine from Hek293 or SH-SY5Y cells, 72 hrs compound treatment. The text has this: Cell-Based Assay of AHCY Inhibition
The AHCY activity of the compounds of the invention can be measured by the following cell-based assay.
Post treatment collection of the adherent Hek293 and/or SH-SY5Y cells is also made for a viability and proliferation measure. Since the amount of secreted homocysteine is limited by the amount of SAH that is converted to homocysteine in the cells and its subsequent secretion, an EC50 measure and % inhibition relative to DMSO control cells can be made. Since the amount of secreted metabolites such as homocysteine can also be related to the absolute and cellular viability, an MTT (3-(4,5-Dimethylthiazol-2-yl)-2,5-diphenyltetrazolium bromide) measure of proliferation and relative cytotoxicty (as compared to control conditions) may also be made.
• 1. The day before compound treatment, plate 20,000 cells (Hek293 or SH-SY5Y) in 96 well cell culture treated plates in 100 μl of cell culture media (DMEM and 10% fetal bovine serum). • 2. Add fresh media plus compound (and DMSO treated controls) for 72 hrs. • 3. Collect conditioned media for measurement of secreted homocysteine and perform viability/proliferation assay on adherent cells. Measure of Secreted Homocysteine: • 1. […]
a. […] Detection: Fluorescence: Excitation 385 nm, Emission 515 nm • v. […]
b. […] absorbance at 550 nm and 690 nM. • 6. Express readout as 550 nM-690 nM.

As usually defined, the IC50 is the concentration needed to halve the response being measured.

Turning to `Nc1nccn2c([C@@H]3C=C(CO)[C@@H](O)[C@H]3O)cnc12` [Example 1, (1S,2R,5S)-5-(8-aminoimidazo[1,2-a]pyrazin-3-yl)-3-(hydroxymethyl)cyclopent-3-ene-1,2-diol], the IC50 (on AHCY enzyme; in experiment [1]) was 4 nM each time.
For `Nc1nccn2c([C@@H]3CC[C@@H](O)[C@H]3O)cnc12` [Example 2, (1R,2S,3S)-3-(8-aminoimidazo[1,2-a]pyrazin-3-yl)cyclopentane-1,2-diol], the IC50 at AHCY enzyme amounted to 692 nM; in experiment [1] it was 1.4 nM.

The values are drawn from patent US8329697B2, “Imidizo[1,2-A]pyrazines useful as AHCY hydrolase inhibitors” (Merck Sharp & Dohme Corp., priority 2008, dated 2012).
